The values that follow come from patent US7166299B2, “Preparation of aqueous clear solution dosage forms with bile acids” (priority 1998, dated 2007).

Usually solubility stands for the dissolved amount per volume that the medium holds. What is called AUC is the area under the concentration-time curve, a measure of exposure. A lower AUC goes with low exposure. The Cmax is the maximum level reached in the sampled fluid or tissue. The term Tmax denotes the time at which the peak concentration occurs.

Data set [1] in a line: Solution stability test (HPLC) of mixed bile acids with maltodextrin in aqueous solution, Example II. In kind it is physicochemical. The conditions noted are these: Table 2: pH 1, 50° C. How it is done: (§1) The stability of dosage formulations of the invention were evaluated by measuring the concentration of the relevant bile acid over time in preparations comprising soluble bile acid, a high molecular weight aqueous soluble starch conversion product, and water at various pH and temperature levels. The retention time of each bile acid may be adjusted as needed to permit individual analysis each bile acid present in a complex samples, i.e. a sample having a plurality of bile acids.
(§2) The stability tests were conducted on three different aqueous solution systems: […].
(§3) The stability tests were performed with HPLC and microscope light at various pH conditions under the normal and accelerated conditions. Accelerated conditions for testing pharmaceutical compositions have been described (Remington, The Science and Practice of Pharmacy, 19th ed., p. 640). […] Thus, the formulations of the examples are suitable for preparing a commercial liquid dosage form. […] Some formulations remain stable for over 2 years.
(§4) For the solution stability test for each bile acid, HPLC was used to measure the concentration of the relevant soluble bile acid under the following conditions: the elution solvent of 0.02 M KH2PO4:acetonitrile in a ratio of 55:45, with a pH of 3.01, the flow rate was 0.8 mL/min., the injection volume was 20 μL, wave length for detection was 195 nm. In the tables, the concentration of the indicated bile acid salt for each of the three numbered trials and the average thereof is reported on each line. The percentage indicates the relative concentration of the bile acid salt after incubation for a certain amount of time in comparison with the initial concentration.
Into the resulting clear solution, maltodextrin was added with agitating at room temperature. Purified water was added to adjust the total volume to be 100 mL.

A short description of data set [2]: Solution stability test (HPLC) of single bile acid with maltodextrin in aqueous solution, Example I. The data set is classed as physicochemical. The protocol: as §1, §2, §3, §4
100 mL of the aqueous solution in which one of the above bile acids is dissolved was prepared. Into the resulting clear solution, maltodextrin, a high molecular weight aqueous soluble starch conversion product, was added with agitation at room temperature. Purified water was added to adjust the total volume to be 100 mL. According to the instant invention and all examples, purified water is deionized, distilled deionized-distilled water, or a grade commonly used for pharmaceutical preparations.

For data set [3] the following is noted: cited from earlier work.
Data set [4] is described as follows: Hematic levels of UDCA and glyco UDCA after oral administration of 200 mg UDCA aqueous solution to three healthy men (Example VI). As to conditions: male, human, in vivo, po, 200 mg. In kind it is in vivo, human. How it is done:
The aqueous solution dosage forms, according to this invention, containing 200 mg of ursodeoxycholic acid (UDCA), were prepared according to the method described in the above-described Example III and were administered to three healthy men having normal body weight after fasting. The hematic levels of UDCA and glyco UDCA were evaluated by means of well known chemical methods. After applying buffered serum to sep-pak column, methanol eluate was derivatized with phenacyl bromide at 80° C. for 45 minutes. These phenacyl bromide derivatives were dissolved in acetonitrile in preparation for HPLC. The experimental results of the absorption measured at certain times after dosage administration include the total absorption expressed as the area under the serum concentration-time curve (AUC: μg/mL×hours), the maximum hematic concentration (Cmax; μg/mL) that has been obtained, and the time (Tmax; hour) in which said maximum concentration has been obtained.
The experimental pharmacokinetic tests of the aqueous solution dosage forms according to this invention carried out on men show substantial improvement in AUC, Cmax and Tmax in comparison with the best results from any dosage forms known presently.
Table 4A and Table 4B show plasma concentration of UDCA and GUDCA measured in 3 men over time following on oral administration of the UDCA and GUDCA containing formulations according to Example VI and comparison of results against results of others employing different pharmaceutical formulations of UDCA.

Setting [5] is: Table 1B: pH 10, 50° C., day 20.

Structures are written as SMILES. ≈ marks a conversion by molar mass, not a printed value. Where “and” joins values, the source holds several entries; their conditions need not be identical. Identical values can stand only once.

With `C[C@H](CCC(=O)O)[C@H]1CC[C@H]2[C@@H]3[C@H](O)C[C@@H]4C[C@H](O)CC[C@]4(C)[C@H]3C[C@H](O)[C@]12C` [CA, cholic acid (3α, 7α, 12α-trihydroxy-5β-cholanic acid)], the “Percentage of day 0 concentration” value in data set [1] (day 0) was found to be 100.0%; in data set [1] (day 4), 89.8%; in data set [1] (day 7) it was 86.9%; in data set [1] (day 20) it was 40.6%; in data set [2] (Table 1A: pH 7, 50° C., day 0), 100.0%; in data set [2] (Table 1A: pH 7, 50° C., day 4), 95.4%. The “Percentage of day 0 concentration” value was determined as 100.8% in data set [2] (Table 1A: pH 7, 50° C., day 7); 103.0% in data set [2] (Table 1A: pH 7, 50° C., day 20); 100.0% in data set [2] (Table 1B: pH 10, 50° C., day 0); 99.1% in data set [2] (Table 1B: pH 10, 50° C., day 4); 103.6% in data set [2] (Table 1B: pH 10, 50° C., day 7); 106.4% in data set [2] (setting [5]). Moreover, the figures for the “concentration by HPLC, Average” value in data set [1] (day 4), in data set [1] (day 7) and in data set [1] (day 20) were 0.457, 0.443 and 0.207, respectively. Besides, the “concentration by HPLC, trials #1-#3” value in data set [1] (day 4) is 0.453 and 0.466; in data set [1] (day 7), 0.434 and 0.426 and 0.468; in data set [1] (day 20), 0.207 and 0.206.
Turning to `C[C@H](CCC(=O)O)[C@H]1CC[C@H]2[C@@H]3[C@H](O)C[C@@H]4C[C@H](O)CC[C@]4(C)[C@H]3CC[C@]12C` [CDCA, chenodeoxycholic acid (3α, 7α-dihydroxy-5β-cholanic acid)], the “Percentage of day 0 concentration” value is 100.0% in data set [1] (day 0); 94.7% in data set [1] (day 4); 87.0% in data set [1] (day 7); 30.2% in data set [1] (day 20); 100.0% in data set [2] (Table 1A: pH 7, 50° C., day 0); 101.6% in data set [2] (Table 1A: pH 7, 50° C., day 4). In addition, the “Percentage of day 0 concentration” value in data set [2] (Table 1A: pH 7, 50° C., day 7) is listed as 105.0%; in data set [2] (Table 1A: pH 7, 50° C., day 20) it was 105.7%; in data set [2] (Table 1B: pH 10, 50° C., day 0) it was 100.0%; in data set [2] (Table 1B: pH 10, 50° C., day 4), 100.0%; in data set [2] (Table 1B: pH 10, 50° C., day 7), 104.1%; in data set [2] (setting [5]), 107.4%. Further, the “concentration by HPLC, Average” value is 0.534 in data set [1] (day 0); 0.506 in data set [1] (day 4); 0.464 in data set [1] (day 7); 0.161 in data set [1] (day 20); 0.547 in data set [2] (Table 1A: pH 7, 50° C., day 0); 0.556 in data set [2] (Table 1A: pH 7, 50° C., day 4). Further, the “concentration by HPLC, Average” value in data set [2] (Table 1A: pH 7, 50° C., day 7) was 0.574; in data set [2] (Table 1A: pH 7, 50° C., day 20), 0.578; in data set [2] (Table 1B: pH 10, 50° C., day 0) it was 0.522; in data set [2] (Table 1B: pH 10, 50° C., day 4), 0.523; in data set [2] (Table 1B: pH 10, 50° C., day 7), 0.544; in data set [2] (setting [5]) it was 0.561. Besides, the “concentration by HPLC, trials #1-#3” value in data set [1] (day 0) was 0.560 and 0.528 and 0.513; in data set [1] (day 4), 0.488 and 0.510 and 0.519; in data set [1] (day 7), 0.460 and 0.469 and 0.463; in data set [1] (day 20), 0.169 and 0.154; in data set [2] (Table 1A: pH 7, 50° C., day 0), 0.572 and 0.539 and 0.530; in data set [2] (Table 1A: pH 7, 50° C., day 4), 0.540 and 0.552 and 0.576. Also, the “concentration by HPLC, trials #1-#3” value in data set [2] (Table 1A: pH 7, 50° C., day 7) is 0.581 and 0.588 and 0.553; in data set [2] (Table 1A: pH 7, 50° C., day 20), 0.565 and 0.608 and 0.560; in data set [2] (Table 1B: pH 10, 50° C., day 0) it was 0.541 and 0.532 and 0.495; in data set [2] (Table 1B: pH 10, 50° C., day 4) it was 0.511 and 0.519 and 0.538; in data set [2] (Table 1B: pH 10, 50° C., day 7) it was 0.564 and 0.527 and 0.540; in data set [2] (setting [5]), 0.556 and 0.569 and 0.558. Also, the “solubility in the gastric juices and in aqueous hydrochloric acid solution” value in data set [3] was “especially insoluble”. Also, the “solubility in the gastric pH range” value in data set [3] is listed as “no longer soluble”. The solubility in water result in data set [3] is recorded as “practically insoluble”.
For the compound `C[C@H](CCC(=O)O)[C@H]1CC[C@H]2[C@@H]3CC[C@@H]4C[C@H](O)CC[C@]4(C)[C@H]3C[C@H](O)[C@]12C` [DCA, deoxycholic acid (3α, 12α-dihydroxy-5β-cholanic acid)], the “solubility in the gastric juices and in aqueous hydrochloric acid solution” value in data set [3] is “especially insoluble”. Besides, in data set [3] (water), the solubility is 0.24 g/L (≈ 611 µM).
Regarding `C[C@H](CCC(=O)NCC(=O)O)[C@H]1CC[C@H]2[C@@H]3[C@@H](O)C[C@@H]4C[C@H](O)CC[C@]4(C)[C@H]3CC[C@]12C` [GUDCA, glycoursodeoxycholic acid], the AUC in data set [4] (AUC, mean) stood at 4380 ± 1170 ng·h/mL. Further, the Cmax in data set [4] (individual men #1-#3) was 1920 ng/mL; in data set [4] (mean), 1600 ng/mL. Moreover, the Tmax in data set [4] (Tmax, mean) turned out to be 3.5 ± 1.5 h.
Regarding `C[C@H](CCC(=O)NCCS(=O)(=O)O)[C@H]1CC[C@H]2[C@@H]3[C@@H](O)C[C@@H]4C[C@H](O)CC[C@]4(C)[C@H]3CC[C@]12C` [Tauroursodeoxycholic acid], in data set [3], the “solubility in hydrochloric acid solution” value is “insoluble”; the “solubility in the gastric juices and in aqueous hydrochloric acid solution” value was “especially insoluble”.
Take `C[C@H](CCC(=O)O)[C@H]1CC[C@H]2[C@@H]3C[C@H](O)[C@@H]4C[C@H](O)CC[C@]4(C)[C@H]3CC[C@]12C` [hyodeoxycholic acid]: in data set [3], the “solubility in the gastric juices and in aqueous hydrochloric acid solution” value is on record as “especially insoluble”.
For the compound `C[C@H](CCC(=O)NCCS(=O)(=O)O)[C@H]1CC[C@H]2[C@@H]3[C@H](O)C[C@@H]4C[C@H](O)CC[C@]4(C)[C@H]3CC[C@]12C` [taurochenodeoxycholic acid], in data set [3], the “solubility in hydrochloric acid solution” value is on record as “insoluble”; the “solubility in the gastric juices and in aqueous hydrochloric acid solution” value was “especially insoluble”.
